This is an account of results in patent US12622965B2, “Therapeutical tools and methods using temperature-sensitive receptors for treating blindness” (FRIEDRICH MIESCHER INSTITUTE FOR BIOMEDICAL RESEARCH, priority 2020, dated 2026).

The subject of the assay is HEK cells expressing TRPV1.459-6x-His, TRPV1.465-6x-His or untagged TRPV1. In words: whole cell voltage clamp in HEK cells expressing TRPV1 variants, activated by capsaicin. The format is cell-based. The settings on record: TRPV1 agonist capsaicin 2.5 μM bath applied; voltage clamp −60 mV; mean±s.e.m. The source says:
First, they developed a system based on rat TRPV1 channels and gold nanorods with absorption maxima at 915 nm. 915 nm was selected to ensure low water absorption. […] To measure if tagged channels are functional, they performed whole cell voltage clamp in HEK cells expressing TRPV1.459-6x-His, TRPV1.465-6x-His or untagged TRPV1 while activating the channels by TRPV1 agonist capsaicin. The size of evoked currents were similar between TRPV1.465-6x-His and TRPV1 (Mann-Whitney U test, P=0.8551; TRPV1.465-6x-His, 1633±164 pA, […] 15 cells; TRPV1, 1766±276 pA, n=14 cells; mean±s.e.m), but less in TRPV1.459-6x-His (Mann-Whitney U test, P=0.0207; TRPV1.459-6x-His, 976±118 pA, n=19 cells; mean±s.e.m). Therefore, they used TRPV1.465-6x-His (rTRPV1) in subsequent experiments.
For HEK293T cell experiments, cells were maintained at 37° C. on poly-D-lysine/laminin coated coverslips (GG-12-Laminin, Neuvitro) in DMEM supplemented with 10% fetal bovine serum. Cells were transfected with plasmids containing TRP variants using branched PEI. Cells were perfused in oxygenated Ringer's medium containing 110 mM NaCl, 2.5 mM KCl, 1 mM CaCl2, 1.6 mM MgCl2, 10 mM D-glucose and 22 mM NaHCO3 at ˜36° C. for the duration of the experiment. […] Data was analyzed offline using MATLAB (MathWorks).

As for “TRPV1: untagged rat TRPV1 channel [reference compound]”, the “size of evoked currents” value is 1766±276 pA.
